Measurements published in article PMC11359794, “Amorphous Polymer–Phospholipid Solid Dispersions for the Co-Delivery of Curcumin and Piperine Prepared via Hot-Melt Extrusion” (Pharmaceutics, 2024).
In brackets after ≈: the same amount, converted by molar mass. Like-named read-outs stand apart in the source and are kept apart here. Marks after values point to notes of the source that are not given here.

Tests used:
[1] = PAMPA permeability assay, blood-brain barrier (BBB) model; assay type: in vitro ADME; conditions: donor pH ≈7.4, 4 h, 37 °C
From the text: (§1) HPLC was used to measure the concentrations of piperine and curcumin in samples taken during permeability, dissolution, and solubility investigations. A Shimadzu LC-2050C (Shimadzu Corp., Kyoto, Japan) was equipped with a diode array detector (DAD). A Dr. Maisch ReproSil-Pur Basic-C18 100 Å column with a 5 µm particle size and a 100 × 4.60 mm size (Dr. Maisch, Ammerbuch-Entringen, Germany) was used as a stationary phase. HPLC-grade methanol/0.1% acetic acid (85:15 v/v) was used as the mobile phase. The mobile phase was vacuum filtered through a 0.45 µm nylon filter (Phenomenex, Torrance, CA, USA). The analysis parameters were as follows: a flow rate of 0.3 mL/min, a wavelength of 420 nm for curcumin and 340 nm for piperine, and a column temperature of 30 °C. The injection volume differed depending on the assay. […] The duration of the run was 9 min. […] Chromatograms (Figure S1) and method validation parameters (Table S1) were added to the Supplementary Materials. The Parallel Artificial Membrane Permeability Assay (PAMPA) models were used to study the permeability of the blood-brain barrier (BBB) and the gastrointestinal tract (GIT) in vitro. Two 96-well microfilter plates formed the sandwich. There were two chambers in the PAMPA system: the acceptor chamber at the top and the donor chamber at the bottom. […]

[2] = Differential scanning calorimetry (glass transition, glass-forming ability); assay type: physicochemical; conditions: heating–cooling–heating, different cooling rates; no crystallization during cooling and following heating
Method: A DSC 214 Polyma differential scanning calorimeter (Netzsch, Selb, Germany) was used for the thermal analysis. Samples of about 5–10 mg were put into crimped aluminum pans with a small hole in the lid. To remove water from the samples, they were heated to 80 °C and kept for 8 min at this temperature, cooled to 25 °C, and then heated again to 235 °C. Raw compounds were heated to 235 °C, cooled to 25 °C, and then heated once again to 235 °C to determine their glass transition temperature (Tg). […] The Tg was taken as the midpoint between onset and endpoint temperatures. Various heating–cooling–heating cycles were carried out to evaluate the glass-forming abilities.

[3] = PAMPA permeability assay, gastrointestinal tract (GIT) model; assay type: in vitro ADME; conditions: donor pH ≈6.8, 4 h, 37 °C
From the text: as §1

[4] = Solubility studies (excess powder, 24 h, 25 °C, HPLC); assay type: physicochemical; conditions: for solubility at 24 h: 25 °C; for Solubility classification: based on solubility test at pH 1.2 and pH 6.8, crystalline compounds
From the text: HPLC was used to measure the concentrations of piperine and curcumin in samples taken during permeability, dissolution, and solubility investigations. A Shimadzu LC-2050C (Shimadzu Corp., Kyoto, Japan) was equipped with a diode array detector (DAD). A Dr. Maisch ReproSil-Pur Basic-C18 100 Å column with a 5 μm particle size and a 100 × 4.60 mm size (Dr. Maisch, Ammerbuch-Entringen, Germany) was used as a stationary phase. HPLC-grade methanol/0.1% acetic acid (85:15 v/v) was used as the mobile phase. The mobile phase was vacuum filtered through a 0.45 μm nylon filter (Phenomenex, Torrance, CA, USA). The analysis parameters were as follows: a flow rate of 0.3 mL/min, a wavelength of 420 nm for curcumin and 340 nm for piperine, and a column temperature of 30 °C. The injection volume differed depending on the assay. […] The duration of the run was 9 min. […] Chromatograms (Figure S1) and method validation parameters (Table S1) were added to the Supplementary Materials. The following steps were used to prepare phosphate buffer at pH 6.8: In a 1000 mL volumetric flask, 250 mL of 0.2 N potassium dihydrogen phosphate solution was added, followed by 112 mL of a 0.2 N sodium hydroxide solution. Purified water was added to make the volume up to 1000 mL. A hydrochloric acid solution with a pH of 1.2 was prepared according to the manufacturer's instructions ([…], Poznań, Poland) from the analytically weighed amount. A 10 mL glass tube was filled with an excess amount of powder (corresponding to 4 mg of each active substance). […] The obtained solutions were filtered, diluted 1:20 v/v with water, and filtered again through a 0.2 μm PTFE membrane filter (Sigma-Aldrich, St. Louis, MO, USA) and analyzed using the HPLC method described above.

[5] = cited from earlier work

Row | SMILES | Permeability, Curcumin Conc. in the acceptor solution [1] | Glass-forming ability [2] | Permeability, Curcumin Conc. in the acceptor solution [3] | solubility at 24 h ([4]; HCl solution, pH 1.2 HCl, read-out: Solubility, Curcumin Conc.) [µg/mL] | Solubility classification [4] | Permeability, Piperine Conc. in the acceptor solution [1] | Permeability, Piperine Conc. in the acceptor solution [3] | solubility at 24 h ([4]; HCl solution, simulated gastric fluid, thermodynamic from solid, pH 1.2 HCl, read-out: Solubility, Piperine Conc.) [µg/mL] | solubility at 24 h ([4]; aqueous buffer, thermodynamic from solid, pH 6.8 phosphate buffer, read-out: Solubility, Piperine Conc.) [µg/mL] | Log P [5]
1 | COc1cc(/C=C/C(=O)CC(=O)/C=C/c2ccc(O)c(OC)c2)ccc1O [Curcumin] | 0.00016 ± 0.000057 ^f mg/mL | good glass-forming ability | 0.00061 ± 0.000038 ^g mg/mL | 0.11 ± 0.01 (≈ 0.299 µM) | practically insoluble |  |  |  |  | 
2 | O=C(/C=C/C=C/c1ccc2c(c1)OCO2)N1CCCCC1 [Piperine] |  | good glass-forming ability |  |  | practically insoluble | 0.0051 ± 0.0003 ^f mg/mL | 0.0044 ± 0.0008 ^g mg/mL | 9 ± 0.6 (≈ 31.5 µM) | 8 ± 0.4 (≈ 28 µM) | 2.78
